Data: US20090012088A1 (priority 2005, published 2009)
Where two headings read alike, the source gives them in different places.

Legend:
[1] = tested on: neuronally differentiated SK-N-SH cells; test: Protection from MPP+ induced toxicity in neuronally differentiated SK-N-SH cells; format: cell-based; details: 10 μM MPP+, 72 h, read-out: EC50 (IC50) for protection from MPP+ induced cell death
Protocol: (§1) In vivo MPTP is metabolized to its active form, the 1-methyl-4-phenylpyridinium ion (MPP^+), and MPP^+ has proven very useful in a variety of cell culture models of PD. To determine the protective effect of PIP-1 on cells subjected to MPP^+ insult, PC-12 (differentiated as above) and SK-N-SH (differentiated with retinoic acid for 12 days) cells are treated with 10 μM MPP^+ and a range of PIP-1 concentrations, and cell death is assessed by propidium iodide staining and flow cytometry. […] As shown in FIGS. 20A and 20B, PIP-1 also protects differentiated PC-12 and SK-N-SH cells from rotenone-induced toxicity as well.
(§2) Cell culture conditions: HL-60 and SK-N-SH cells are grown in RPMI 1640 media supplemented with 10% FBS and PC-12 cells are grown in RPMI 1640 media supplemented with 10% HS and 5% FBS. All cell lines are incubated at 37° C. in a 5% CO2, 95% air atmosphere. HL-60 cells are split every two to three days as needed and SK-N-SH cells are split when they reach approximately 90% confluency at a 1:6 ratio. […]
(§3) Protection of Rotenone and MPP^+ induced toxicity in PC-12 and SK-N-SH cells: SK-N-SH and PC-12 cells are neuronally differentiated as described above. […] The cells are then washed in PBS and the viability is determined by adding propidium iodide to 1 μg/mL and measuring the fluorescent intensity of each cell by flow cytometry.

PARG = test: Table 2: small molecules tested for PARG inhibition activity (relative to PIP-1); format: biochemical
[2] = tested on: poly(ADP-ribose) in PC-12 cells; test: Intracellular PAR staining in H2O2-treated PC-12 cells (flow cytometry); format: cell-based; details: PC-12 cells pre-treated with PIP-1, then H2O2
Protocol: Screening of the 22,000 compounds in this manner produced 38 primary hits (FIG. 15A—“initial hits”). These 38 compounds are assessed for their ability to inhibit PARP-1 and PARG using standard in vitro assays. (12, 29) 20 compounds are PARP-1 inhibitors, and 3 are PARG inhibitors (FIG. 15A). Compounds 1 and 2 inhibit PARG quite well, with IC50 values of ˜0.4-0.5 μM (FIG. 15C). […] Subsequent efforts therefore focused on compound 1, which is named PIP-1 (pyridazinone inhibitor of PARG), and derivatives thereof. […] To determine if PIP-1 could induce the build-up of PAR in cell culture, PC-12 cells were treated with a range of PIP-1 concentrations; H2O2 was then added to induce PARP-1 activity and the cellular PAR levels were quantitated with an anti-PAR antibody and flow cytometry.
Intracellular PAR staining: 1 mL of 10^6 cells/mL PC-12 cells is added to the wells of a 24-well plate. Varying concentrations of PIP-1 or DMSO as a control are added to the cells and incubated for 2 h at 37° C. H2O2 is added to the cells to approximately […]. After a 2 h incubation at 37° C., the cells are thoroughly washed in PBS and fixed overnight in 4° C. ethanol. The cells are again washed in PBS and stained with a 1:50 dilution of anti-poly(ADP-ribose) antibody for 4 h at 4° C. […] After washing with PBS, the fluorescent intensity of each cell is determined by flow cytometry.

[3] = tested on: neuronally differentiated PC-12 cells; test: Protection from MPP+ induced toxicity in neuronally differentiated PC-12 cells; format: cell-based; details: 10 μM MPP+, read-out: EC50 (IC50) for protection from MPP+ induced cell death
Protocol: as §1, §2, §3

U-937 cells = test: Protection against H2O2 treatment of U-937 cells (cell survival); format: cell-based; details: FIG. 13
Protocol: We have made multiple derivatives of PIP-1; these compounds are shown below in Table 2 and in FIG. 11 and labeled Structures 1-39. The neuroprotective effects of structures 1-26 were tested in the cellular assay and compared to the neuroprotective effect of PIP-1 (FIG. 13).
PIP-1 and structures 1-26 were screened for protection against H2O2 treatment of U-937 cells FIG. 13.

CN(C)c1cnn(-c2ccccc2)c(=O)c1N [PIP-1, 4-Amino-5-dimethylamino-2-phenyl-2H-pyridazin-3-one]
EC50 [1]: 1640 nM | EC50 ([1]; Homo sapiens, SK-N-SH): ~1800 nM | Activity (PARG): good | Accumulation of intracellular PAR [2]: dose-dependent accumulation of intracellular PAR | EC50 ([3]; 72 h): 1810 nM | EC50 ([3]; Rattus norvegicus, PC-12, 72 h): ~1800 nM | Protection of U-937 cells treated with H2O2 (activity compared to PIP-1) (U-937 cells): activity similar or better than PIP-1
